4 compounds from BindingDB's records for patent US12264155 (Repare Therapeutics, 2025) can be followed below.

Molecules are shown by their SMILES.

For the assay, the target named is Serine/threonine-protein kinase ATR (Homo sapiens, UniProt Q13535). The assay can be described thus: ATR/ATRIP Enzymatic Assay. The source says: Detection of ATR kinase activity utilized the AlphaScreen system to measure the phosphorylation of the substrate protein p53.
Serine/threonine-protein kinase ATR, sequence (Q13535 whole entry): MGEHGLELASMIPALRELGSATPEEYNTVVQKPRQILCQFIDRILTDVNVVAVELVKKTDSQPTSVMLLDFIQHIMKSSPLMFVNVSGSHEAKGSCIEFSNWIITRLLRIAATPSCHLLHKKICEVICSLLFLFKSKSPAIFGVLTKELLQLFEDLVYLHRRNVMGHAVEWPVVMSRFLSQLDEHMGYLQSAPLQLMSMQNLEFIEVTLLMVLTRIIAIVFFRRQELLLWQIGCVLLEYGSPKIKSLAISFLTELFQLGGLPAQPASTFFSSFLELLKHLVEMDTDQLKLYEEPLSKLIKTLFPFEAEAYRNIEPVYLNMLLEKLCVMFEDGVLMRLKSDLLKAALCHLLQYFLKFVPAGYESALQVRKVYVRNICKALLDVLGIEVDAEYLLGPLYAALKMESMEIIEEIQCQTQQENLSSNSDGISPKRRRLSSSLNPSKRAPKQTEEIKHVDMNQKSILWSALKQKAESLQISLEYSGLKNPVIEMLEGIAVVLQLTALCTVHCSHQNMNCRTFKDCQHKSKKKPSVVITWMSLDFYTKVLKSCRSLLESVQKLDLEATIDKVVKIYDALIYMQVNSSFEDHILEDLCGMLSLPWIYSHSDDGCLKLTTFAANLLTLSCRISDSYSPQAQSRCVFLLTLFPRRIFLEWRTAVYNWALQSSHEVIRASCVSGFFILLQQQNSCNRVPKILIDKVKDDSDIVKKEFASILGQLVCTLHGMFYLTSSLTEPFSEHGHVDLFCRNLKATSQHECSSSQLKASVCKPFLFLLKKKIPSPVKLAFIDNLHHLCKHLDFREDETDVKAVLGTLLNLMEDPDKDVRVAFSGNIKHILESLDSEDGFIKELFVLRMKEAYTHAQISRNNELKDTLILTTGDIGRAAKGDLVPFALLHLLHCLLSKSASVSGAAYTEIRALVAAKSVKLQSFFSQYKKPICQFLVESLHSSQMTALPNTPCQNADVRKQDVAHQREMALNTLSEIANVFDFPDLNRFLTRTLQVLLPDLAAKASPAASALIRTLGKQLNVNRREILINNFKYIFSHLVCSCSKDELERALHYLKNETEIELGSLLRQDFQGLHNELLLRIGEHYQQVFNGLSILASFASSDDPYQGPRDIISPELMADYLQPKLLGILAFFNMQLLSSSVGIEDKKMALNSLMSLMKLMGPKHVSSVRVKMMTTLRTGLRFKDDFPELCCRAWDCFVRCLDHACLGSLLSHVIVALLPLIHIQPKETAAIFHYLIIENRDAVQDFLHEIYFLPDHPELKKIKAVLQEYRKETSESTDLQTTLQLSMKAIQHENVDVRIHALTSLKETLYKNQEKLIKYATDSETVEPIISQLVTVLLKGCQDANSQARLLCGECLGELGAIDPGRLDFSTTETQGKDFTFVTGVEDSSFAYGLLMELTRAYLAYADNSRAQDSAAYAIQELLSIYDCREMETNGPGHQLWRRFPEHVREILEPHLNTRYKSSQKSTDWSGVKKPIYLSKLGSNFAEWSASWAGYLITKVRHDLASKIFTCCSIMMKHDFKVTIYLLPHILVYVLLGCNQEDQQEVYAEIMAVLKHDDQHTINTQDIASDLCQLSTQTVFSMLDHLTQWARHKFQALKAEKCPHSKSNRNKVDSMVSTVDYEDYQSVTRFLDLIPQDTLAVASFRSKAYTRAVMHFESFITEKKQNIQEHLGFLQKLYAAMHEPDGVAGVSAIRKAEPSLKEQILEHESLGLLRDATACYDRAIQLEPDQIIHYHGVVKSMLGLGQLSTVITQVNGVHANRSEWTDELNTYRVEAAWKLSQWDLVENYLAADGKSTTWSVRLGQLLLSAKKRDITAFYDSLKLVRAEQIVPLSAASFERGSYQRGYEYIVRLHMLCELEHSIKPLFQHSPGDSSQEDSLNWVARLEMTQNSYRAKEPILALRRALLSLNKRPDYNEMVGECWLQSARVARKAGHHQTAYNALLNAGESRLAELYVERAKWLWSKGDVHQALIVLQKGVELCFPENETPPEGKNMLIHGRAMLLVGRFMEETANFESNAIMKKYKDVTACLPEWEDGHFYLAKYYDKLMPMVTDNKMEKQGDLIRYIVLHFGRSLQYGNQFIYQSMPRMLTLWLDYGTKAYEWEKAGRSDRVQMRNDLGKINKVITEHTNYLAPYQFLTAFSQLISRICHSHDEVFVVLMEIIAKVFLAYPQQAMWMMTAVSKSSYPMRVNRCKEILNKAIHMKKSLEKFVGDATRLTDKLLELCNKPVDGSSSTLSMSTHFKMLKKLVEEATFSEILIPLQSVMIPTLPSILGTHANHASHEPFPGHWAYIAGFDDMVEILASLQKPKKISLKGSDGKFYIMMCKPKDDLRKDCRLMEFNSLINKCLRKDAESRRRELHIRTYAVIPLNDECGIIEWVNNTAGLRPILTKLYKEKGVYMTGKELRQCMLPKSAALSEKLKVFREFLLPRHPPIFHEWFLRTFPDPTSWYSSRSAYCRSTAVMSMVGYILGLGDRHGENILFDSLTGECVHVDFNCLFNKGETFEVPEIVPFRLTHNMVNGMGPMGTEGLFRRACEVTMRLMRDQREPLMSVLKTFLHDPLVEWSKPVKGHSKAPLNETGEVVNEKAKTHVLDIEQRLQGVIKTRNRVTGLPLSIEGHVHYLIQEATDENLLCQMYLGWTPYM

For `C[C@@H]1COCCN1c1cc(N2CCOC2=O)c2ccn(-c3cc[nH]n3)c2n1` [US12264155, Compound 26], the IC50 (usually the point on the concentration scale where inhibition reaches its midpoint) amounted to 860 nM. As for `C[C@@H]1COCCN1c1cc(OCC(F)(F)F)c2cnn(-c3cc[nH]n3)c2n1` [US12264155, Compound 55], the figure is 13 nM; as for `C[C@@H]1COCCN1c1cc(C2(O)CCC3(CCC3)CC2)c2cnn(-c3cc[nH]n3)c2n1` [US12264155, Compound 58], 6 nM; as for `C[C@@H]1COCCN1c1cc(C(C)(C)C#N)c2c(Br)nn(-c3cc[nH]n3)c2n1` [US12264155, Compound 70], less than 5 nM.
